In the NIST ThermoML archive (doi:10.1021/je030236t):
± gives the expanded uncertainty stated by the source.

Assays:
[1] = Liquid
[2] = molar enthalpy of vaporization or sublimation; settings: 298.15 K; Liquid
[3] = Molar enthalpy of transition or fusion; settings: Crystal; DSC

CCCCCCCCCCCCCCCCCCCCCCCCCCCCCCCCCCC [pentatriacontane]
vapor or sublimation pressure ([1]; 298.15 K): 1.22e-13 ± 3.7e-14 kPa
vapor or sublimation pressure ([1]; 310 K): 1.86e-12 ± 5.6e-13 kPa
vapor or sublimation pressure ([1]; 320 K): 1.53e-11 ± 4.6e-12 kPa
vapor or sublimation pressure ([1]; 330 K): 1.07e-10 ± 3.2e-11 kPa
vapor or sublimation pressure ([1]; 340 K): 6.52e-10 ± 2e-10 kPa
vapor or sublimation pressure ([1]; 350 K): 3.46e-09 ± 1e-09 kPa
vapor or sublimation pressure ([1]; 360 K): 1.63e-08 ± 4.9e-09 kPa
vapor or sublimation pressure ([1]; 370 K): 6.91e-08 ± 2.1e-08 kPa
vapor or sublimation pressure ([1]; 380 K): 2.64e-07 ± 7.9e-08 kPa
vapor or sublimation pressure ([1]; 390 K): 9.25e-07 ± 2.8e-07 kPa
vapor or sublimation pressure ([1]; 400 K): 2.97e-06 ± 8.9e-07 kPa
vapor or sublimation pressure ([1]; 410 K): 8.87e-06 ± 2.7e-06 kPa
vapor or sublimation pressure ([1]; 420 K): 2.46e-05 ± 7.4e-06 kPa
vapor or sublimation pressure ([1]; 430 K): 6.42e-05 ± 1.9e-05 kPa
vapor or sublimation pressure ([1]; 440 K): 0.000158 ± 4.7e-05 kPa
vapor or sublimation pressure ([1]; 450 K): 0.000367 ± 0.00011 kPa
vapor or sublimation pressure ([1]; 460 K): 0.000812 ± 0.00024 kPa
vapor or sublimation pressure ([1]; 470 K): 0.00171 ± 0.00051 kPa
vapor or sublimation pressure ([1]; 480 K): 0.00346 ± 0.001 kPa
vapor or sublimation pressure ([1]; 490 K): 0.00673 ± 0.002 kPa
vapor or sublimation pressure ([1]; 500 K): 0.0126 ± 0.0038 kPa
vapor or sublimation pressure ([1]; 510 K): 0.0228 ± 0.0068 kPa
vapor or sublimation pressure ([1]; 520 K): 0.0399 ± 0.012 kPa
vapor or sublimation pressure ([1]; 530 K): 0.0678 ± 0.02 kPa
vapor or sublimation pressure ([1]; 540 K): 0.112 ± 0.034 kPa
vapor or sublimation pressure ([1]; 550 K): 0.181 ± 0.054 kPa
vapor or sublimation pressure ([1]; 560 K): 0.284 ± 0.085 kPa
vapor or sublimation pressure ([1]; 570 K): 0.436 ± 0.13 kPa
vapor or sublimation pressure ([1]; 580 K): 0.657 ± 0.2 kPa
molar enthalpy [2]: 42.5 ± 2.2 kcal/mol

CCCCCCCCCCCCCCCCCCCCCCCCCCCCCCCCCCCCCC [octatriacontane]
vapor or sublimation pressure ([1]; 298.15 K): 5.13e-15 ± 1.5e-15 kPa
vapor or sublimation pressure ([1]; 310 K): 9.81e-14 ± 2.9e-14 kPa
vapor or sublimation pressure ([1]; 320 K): 9.59e-13 ± 2.9e-13 kPa
vapor or sublimation pressure ([1]; 330 K): 7.88e-12 ± 2.4e-12 kPa
vapor or sublimation pressure ([1]; 340 K): 5.54e-11 ± 1.7e-11 kPa
vapor or sublimation pressure ([1]; 350 K): 3.38e-10 ± 1e-10 kPa
vapor or sublimation pressure ([1]; 360 K): 1.81e-09 ± 5.4e-10 kPa
vapor or sublimation pressure ([1]; 370 K): 8.6e-09 ± 2.6e-09 kPa
vapor or sublimation pressure ([1]; 380 K): 3.67e-08 ± 1.1e-08 kPa
vapor or sublimation pressure ([1]; 390 K): 1.42e-07 ± 4.3e-08 kPa
vapor or sublimation pressure ([1]; 400 K): 5.03e-07 ± 1.5e-07 kPa
vapor or sublimation pressure ([1]; 410 K): 1.64e-06 ± 4.9e-07 kPa
vapor or sublimation pressure ([1]; 420 K): 4.95e-06 ± 1.5e-06 kPa
vapor or sublimation pressure ([1]; 430 K): 1.39e-05 ± 4.2e-06 kPa
vapor or sublimation pressure ([1]; 440 K): 3.68e-05 ± 1.1e-05 kPa
vapor or sublimation pressure ([1]; 450 K): 9.16e-05 ± 2.8e-05 kPa
vapor or sublimation pressure ([1]; 460 K): 0.000216 ± 6.5e-05 kPa
vapor or sublimation pressure ([1]; 470 K): 0.000484 ± 0.00015 kPa
vapor or sublimation pressure ([1]; 480 K): 0.00104 ± 0.00031 kPa
vapor or sublimation pressure ([1]; 490 K): 0.00212 ± 0.00064 kPa
vapor or sublimation pressure ([1]; 500 K): 0.00417 ± 0.0013 kPa
vapor or sublimation pressure ([1]; 510 K): 0.00791 ± 0.0024 kPa
vapor or sublimation pressure ([1]; 520 K): 0.0145 ± 0.0044 kPa
vapor or sublimation pressure ([1]; 530 K): 0.0257 ± 0.0077 kPa
vapor or sublimation pressure ([1]; 540 K): 0.0441 ± 0.013 kPa
vapor or sublimation pressure ([1]; 550 K): 0.0738 ± 0.022 kPa
vapor or sublimation pressure ([1]; 560 K): 0.12 ± 0.036 kPa
vapor or sublimation pressure ([1]; 570 K): 0.191 ± 0.057 kPa
vapor or sublimation pressure ([1]; 580 K): 0.296 ± 0.089 kPa
molar enthalpy [2]: 46 ± 2.34 kcal/mol

c1ccc(-c2cc(-c3ccccc3)cc(-c3ccccc3)c2)cc1 [1,3,5-triphenylbenzene]
Molar enthalpy of transition or fusion [3]: 7.43 ± 0.215 kcal/mol

CCCCCCCCCCCCCCCCCCCCCCCCCCCCCCC [hentriacontane]
vapor or sublimation pressure ([1]; 298.15 K): 1.11e-11 ± 2.2e-12 kPa
vapor or sublimation pressure ([1]; 310 K): 1.23e-10 ± 2.5e-11 kPa
vapor or sublimation pressure ([1]; 320 K): 7.88e-10 ± 1.6e-10 kPa
vapor or sublimation pressure ([1]; 330 K): 4.39e-09 ± 8.8e-10 kPa
vapor or sublimation pressure ([1]; 340 K): 2.15e-08 ± 4.3e-09 kPa
vapor or sublimation pressure ([1]; 350 K): 9.39e-08 ± 1.9e-08 kPa
vapor or sublimation pressure ([1]; 360 K): 3.69e-07 ± 7.4e-08 kPa
vapor or sublimation pressure ([1]; 370 K): 1.32e-06 ± 2.6e-07 kPa
vapor or sublimation pressure ([1]; 380 K): 4.3e-06 ± 8.6e-07 kPa
vapor or sublimation pressure ([1]; 390 K): 1.3e-05 ± 2.6e-06 kPa
vapor or sublimation pressure ([1]; 400 K): 3.64e-05 ± 7.3e-06 kPa
vapor or sublimation pressure ([1]; 410 K): 9.56e-05 ± 1.9e-05 kPa
vapor or sublimation pressure ([1]; 420 K): 0.000236 ± 4.7e-05 kPa
vapor or sublimation pressure ([1]; 430 K): 0.00055 ± 0.00011 kPa
vapor or sublimation pressure ([1]; 440 K): 0.00122 ± 0.00024 kPa
vapor or sublimation pressure ([1]; 450 K): 0.00256 ± 0.00051 kPa
vapor or sublimation pressure ([1]; 460 K): 0.00517 ± 0.001 kPa
vapor or sublimation pressure ([1]; 470 K): 0.01 ± 0.002 kPa
vapor or sublimation pressure ([1]; 480 K): 0.0187 ± 0.0037 kPa
vapor or sublimation pressure ([1]; 490 K): 0.0336 ± 0.0067 kPa
vapor or sublimation pressure ([1]; 500 K): 0.0585 ± 0.012 kPa
vapor or sublimation pressure ([1]; 510 K): 0.0989 ± 0.02 kPa
vapor or sublimation pressure ([1]; 520 K): 0.163 ± 0.033 kPa
vapor or sublimation pressure ([1]; 530 K): 0.26 ± 0.052 kPa
vapor or sublimation pressure ([1]; 540 K): 0.406 ± 0.081 kPa
vapor or sublimation pressure ([1]; 550 K): 0.619 ± 0.12 kPa
vapor or sublimation pressure ([1]; 560 K): 0.925 ± 0.18 kPa
vapor or sublimation pressure ([1]; 570 K): 1.35 ± 0.27 kPa
vapor or sublimation pressure ([1]; 580 K): 1.95 ± 0.39 kPa
molar enthalpy [2]: 37.6 ± 1.96 kcal/mol

CCCCCCCCCCCCCCCCCCCCCCCCCCCCCCCCCC [tetratriacontane]
vapor or sublimation pressure ([1]; 298.15 K): 3.83e-13 ± 7.7e-14 kPa
vapor or sublimation pressure ([1]; 310 K): 5.39e-12 ± 1.1e-12 kPa
vapor or sublimation pressure ([1]; 320 K): 4.16e-11 ± 8.3e-12 kPa
vapor or sublimation pressure ([1]; 330 K): 2.75e-10 ± 5.5e-11 kPa
vapor or sublimation pressure ([1]; 340 K): 1.58e-09 ± 3.2e-10 kPa
vapor or sublimation pressure ([1]; 350 K): 7.97e-09 ± 1.6e-09 kPa
vapor or sublimation pressure ([1]; 360 K): 3.59e-08 ± 7.2e-09 kPa
vapor or sublimation pressure ([1]; 370 K): 1.45e-07 ± 2.9e-08 kPa
vapor or sublimation pressure ([1]; 380 K): 5.34e-07 ± 1.1e-07 kPa
vapor or sublimation pressure ([1]; 390 K): 1.8e-06 ± 3.6e-07 kPa
vapor or sublimation pressure ([1]; 400 K): 5.58e-06 ± 1.1e-06 kPa
vapor or sublimation pressure ([1]; 410 K): 1.61e-05 ± 3.2e-06 kPa
vapor or sublimation pressure ([1]; 420 K): 4.34e-05 ± 8.7e-06 kPa
vapor or sublimation pressure ([1]; 430 K): 0.00011 ± 2.2e-05 kPa
vapor or sublimation pressure ([1]; 440 K): 0.000263 ± 5.3e-05 kPa
vapor or sublimation pressure ([1]; 450 K): 0.000596 ± 0.00012 kPa
vapor or sublimation pressure ([1]; 460 K): 0.00129 ± 0.00026 kPa
vapor or sublimation pressure ([1]; 470 K): 0.00266 ± 0.00053 kPa
vapor or sublimation pressure ([1]; 480 K): 0.00527 ± 0.001 kPa
vapor or sublimation pressure ([1]; 490 K): 0.01 ± 0.002 kPa
vapor or sublimation pressure ([1]; 500 K): 0.0184 ± 0.0037 kPa
vapor or sublimation pressure ([1]; 510 K): 0.0328 ± 0.0066 kPa
vapor or sublimation pressure ([1]; 520 K): 0.0564 ± 0.011 kPa
vapor or sublimation pressure ([1]; 530 K): 0.0944 ± 0.019 kPa
vapor or sublimation pressure ([1]; 540 K): 0.154 ± 0.031 kPa
vapor or sublimation pressure ([1]; 550 K): 0.244 ± 0.049 kPa
vapor or sublimation pressure ([1]; 560 K): 0.379 ± 0.076 kPa
vapor or sublimation pressure ([1]; 570 K): 0.575 ± 0.12 kPa
vapor or sublimation pressure ([1]; 580 K): 0.856 ± 0.17 kPa
molar enthalpy [2]: 41.3 ± 2.1 kcal/mol
